Patent publication EP0027679B1, “Substituted-5-((7-chloro-4-quinolinyl)amino)-3-(amino-methyl)-(1,1'-biphenyl)-2-ol compounds; processes for their production; and pharmaceutical compositions containing the compounds” (WARNER-LAMBERT COMPANY, priority 1979, dated 1981)

What was measured:
[1] = test system: chloroquine-pyrimethamine-resistant Vietnam Smith strain of P. Falciparum; experiment: Owl monkey infection with P. falciparum trophozoites, Vietnam Smith strain; type: in vivo, owl monkeys; settings: for curative: orally at 2.0 mg/kg/day for a three day period; for cleared the parasitemia: orally at 1.0 mg/kg/day for three days
Procedure: (§1) Studies were also conducted with infections resulting from inoculations of owl monkeys with trophozoites of the chloroquine-pyrimethamine-resistant Vietnam Smith strain of P. Falciparum; the chloroquine-quinine-resistant, pyrimethamine-susceptible Vietnam Oak Knoll strain of P. Falciparum; or the pyrimethamine-resistant Uganda Palo Alto strain of P. Falciparum. The test method is described in L. H. Schmidt, Trans. R. Soc. Trop. Med Hyg. 67 446 (1973).

[2] = test system: chloroquine-quinine-resistant, pyrimethamine-susceptible Vietnam Oak Knoll strain of P. Falciparum; experiment: Owl monkey infection with P. falciparum trophozoites, Vietnam Oak Knoll strain; type: in vivo, owl monkeys; settings: for activity relative to amodiaquine as curative agents: Oak Knoll strains of the malaria parasite; for curative / cleared the parasitemia: Vietnam Oak Knoll strain; for curative: orally at 2.0 mg/kg/day for a three day period; for activity relative to amodiaquine in clearing parasites: Oak Knoll strain; for cleared the parasitemia: orally at 1.0 mg/kg/day for three days
Procedure: as §1

[3] = test system: normal drug-sensitive strain of Plasmodium berghei; experiment: Plasmodium berghei in mice, single subcutaneous dose 72 h post infection, mean survival time and cures; type: in vivo; settings: Table I; for MST after single s.c. dose (extension of survival time over the controls): animals not cured, control MST 6.1-6.3 days; for MST after single s.c. dose: animals cured (C): five animal group
Procedure: Compounds of the invention were tested against a normal drug-sensitive strain of Plasmodium berghei in mice by the parenteral route by a procedure described in J. Med. Chem., 1043 (1967). The compounds were dissolved or suspended in sesame or peanut oil and were administered to mice in a single subcutaneous dose seventy-two hours post infection. Extension of the mean survival time of the treated mice is interpreted as evidence of anti-malarial activity. Compounds are arbitrarily considered to be "active" when they produce at least a 100 percent increase in the mean survival time of treated mice. Animals that survive to sixty days are considered "cured" (termed "C" in Tables I and II). The means survival time (MST) of infected control mice ranges from 6.1-6.3 days while the numbers in parentheses in Tables I and II indicate extension of survival time over the controls as an average for those animals of the five animal group not "cured".

[4] = test system: pyrimethamine-resistant Uganda Palo Alto strain of P. Falciparum; experiment: Owl monkey infection with P. falciparum trophozoites, Uganda Palo Alto strain; type: in vivo, owl monkeys; settings: orally at 1.0 mg/kg/day for three days
Procedure: as §1

[5] = Burckhalter article, Tables VI and XI; cited from earlier work

SMILES: CC(C)(C)NCc1cc(Nc2cc[n+]([O-])c3cc(Cl)ccc23)cc(-c2ccc(Cl)cc2)c1O [4—Cl, H, NHC(CH3)3, 1, 4'-chloro-5-[(7-chloro-4-quinolinyl)aminoj-3-[[1,1-dimethylethyl)amino]methyl]-[1,1'-biphenyl]-2-ol-1-oxide]
- curative [1]: curative
- activity relative to amodiaquine as curative agents [2]: twenty times the activity of amodiaquine
- curative [2]: curative

SMILES: CCN(CC)Cc1cc(Nc2ccnc3cc(Cl)ccc23)ccc1O [Amodiaquine, reference compound]
- MST after single s.c. dose (extension of survival time over the controls) ([3]; dose 10 (dose unit not given)): 5.7 days
- MST after single s.c. dose (extension of survival time over the controls) ([3]; dose 20 (dose unit not given)): 8.3 days
- MST after single s.c. dose (extension of survival time over the controls) ([3]; dose 40 (dose unit not given)): 11.9 days
- MST after single s.c. dose: animals cured (C) ([3]; dose 80 (dose unit not given)): 2C
- MST after single s.c. dose: animals cured (C) ([3]; dose 160 (dose unit not given)): 5C
- MST after single s.c. dose: animals cured (C) ([3]; dose 320 (dose unit not given)): 5C
- MST after single s.c. dose: animals cured (C) ([3]; dose 640 (dose unit not given)): 5C

SMILES: CCN(CC)Cc1cc(Nc2cc[n+]([O-])c3cc(Cl)ccc23)cc(-c2ccc(Cl)cc2)c1O [Example 1]
- curative [1]: curative
- activity relative to amodiaquine as curative agents [2]: twenty times the activity of amodiaquine
- curative [2]: curative

SMILES: CCN(CC)Cc1cc(Nc2ccnc3cc(Cl)ccc23)cc(-c2ccc(Cl)cc2)c1O [Example 2, 4'-chloro-5-[(7-chloro-4-quinolinyl)amino]-3-[(diethylamino)methyl][1,1'-biphenyl]-2-ol]
- cleared the parasitemia [1]: cleared the parasitemia
- cleared the parasitemia [4]: cleared the parasitemia
- MST after single s.c. dose (extension of survival time over the controls) ([3]; dose 10 (dose unit not given)): 14.2 days
- MST after single s.c. dose: animals cured (C) ([3]; dose 10 (dose unit not given)): 2C
- MST after single s.c. dose: animals cured (C) ([3]; dose 20 (dose unit not given)): 3C
- MST after single s.c. dose: animals cured (C) ([3]; dose 40 (dose unit not given)): 4C
- MST after single s.c. dose: animals cured (C) ([3]; dose 80 (dose unit not given)): 5C
- MST after single s.c. dose: animals cured (C) ([3]; dose 160 (dose unit not given)): 5C
- MST after single s.c. dose: animals cured (C) ([3]; dose 320 (dose unit not given)): 5C
- MST after single s.c. dose: animals cured (C) ([3]; dose 640 (dose unit not given)): 5C
- activity relative to amodiaquine in clearing parasites [2]: twenty times the activity of amodiaquine
- cleared the parasitemia [2]: cleared the parasitemia

SMILES: CC(C)(C)NCc1cc(Nc2ccnc3cc(Cl)ccc23)cc(-c2ccc(Cl)cc2)c1O [Example 3, 4'-chloro-5-[(7-chloro-4-quinolinyl)amino]-3-[[(1,1-dimethylethyl)amino]methyl][1,1'-biphenyl]-2-ol]
- cleared the parasitemia [1]: cleared the parasitemia
- cleared the parasitemia [4]: cleared the parasitemia
- activity relative to amodiaquine in clearing parasites [2]: twenty times the activity of amodiaquine
- cleared the parasitemia [2]: cleared the parasitemia

SMILES: C=CCc1cc(Nc2ccnc3cc(Cl)ccc23)cc(CN(CC)CC)c1O [SN-11991]
- quinine equivalent [5]: 10

SMILES: CCN(CC)Cc1cc(Nc2ccnc3cc(Cl)ccc23)cc(Cl)c1O [SN-13729]
- quinine equivalent [5]: 12
